Where two headings read alike, the source gives them in different places.
Tests used:
[1] = system: HT-29 human colon cancer cells; test: HT-29 xenograft study in mice (Example 19); type: in vivo; details: 25 mg/kg intraperitoneally, q.d.x 5 for two weeks
Experimental: In order to evaluate the effectiveness of compound 1-1 against tumor cells in a living system, a xenograft study was performed in mice. 1×10^7 HT-29 human colon cancer cells were injected subcutaneously into 16 Nu/Nu athymic nude mice (Charles River Laboratories, Wilmington, Mass.). Tumor volume was measured according to the formula ((Width)^2*Length)/2. Tumors were allowed to grow to approximately 100 mm^3 in volume (Day 0), at which point mice were randomized to two groups: Eight mice were treated with 25 mg/kg compound 1-1, while the other eight were given an equal volume of drug vehicle. For this study, the drug vehicle used was 60% propylene glycol, 30% polyethylene glycol 300, 10% ethanol with 150 mg/mL 2-hydroxypropyl-beta-cyclodextrin. Each mouse received 0.1 mL of drug or vehicle intraperitoneally on a q.d.x 5 schedule for two weeks, with two days rest between cycles.

[2] = system: MDA-MB-231 breast carcinoma cells; test: cell proliferation assay (Cell-Titer-Glo), MDA-MB-231; type: cell-based; details: Homo sapiens
Experimental: Cell culture-based assays can be used to evaluate the ability of compounds of the invention to inhibit one or more cellular activities, such as cancer cell growth and/or survival. Numerous cancer cell lines can be obtained from the American Type Culture Collection (ATCC) and other sources. Briefly, cells are seeded into 96-well, tissue-culture treated, opaque white plates (Thermo Electron, Vantaa, Finland), at between 5000 and 10000 cells per well, depending on the speed of cell proliferation, in 100 μl of appropriate growth medium (determined by the ATCC). Cells are then exposed to the appropriate concentration of drug or an equal amount of DMSO (drug diluent) and allowed to grow in its presence for 96 hours. Following this, 100 μl of Cell-Titer-Glo reagent (Promega, Inc., Madison, Wis.) is added to each well. Plates are then shaken for 2 minutes at room temperature to allow for cell lysis and incubated for 10 minutes to stabilize the luminescent signal. Similar to the Kinase-Glo assay reagent from Promega, this reagent contains both luciferase enzyme and its substrate luciferin. Luciferase, activated by ATP in the cell lysate, catalyzes the conversion of luciferin to oxyluciferin, a reaction which produces light. The amount of light produced is proportionate to the amount of ATP in the cell lysate, which is itself proportional to cell number and gives an index of cellular proliferation.
Compound 1-1 and Compound 2-11 were tested in a cell proliferation assay to determine potency in a cell-based assay format. Briefly, MDA-MB-231 breast carcinoma cells were inoculated onto 96-well plates and incubated in the presence of compounds for 96 hours. Following incubation, cells were lysed and ATP content used as a surrogate for cell number, using the Cell-Titer-Glo Luminescent Cell Viability Assay Kit (Promega Corp.). IC50 values, representing the concentration required to reduce cell number to 50% of untreated controls, were determined to be 20 uM for Compound 1-1 and 10 uM for Compound 2-11.

[3] = system: HT-29 Colorectal Xenograft; test: HT-29 colorectal xenograft, route of administration (Example 70); type: in vivo, mice; details: intraperitoneal ALZET osmotic pump, 25 mg/kg/day over 14 days
Experimental: This study examined the effect of route of administration on tumor growth inhibition. Tumor bearing mice were treated with compound 2-3 intraperitoneally (ALZET osmotic pumps, delivering 25 mg/kg/day over 14 days) or intravenously (80 mg/kg/d on Days 1, 4 and 7). Because of difficulty in maintaining tail vein patency, this group of mice received subsequent dose intraperitoneally on Days 10, 11, 12 and 15. Compound 2-3 delivered continuously via the osmotic pump decreased tumor growth rate to 10.75 mm^3/d, compared with vehicle-treated tumor growth rate of 28.28 mm^3/d (see FIG. 5). Treated/Control ratio was 38%. […] However, after dosing was switched to IP, this effect was lost.

[4] = system: Aurora-2 kinase (Aurora-A) over Aurora-1 kinase (Aurora-B); test: SelectScreen kinase assay, specificity within the Aurora kinase family; type: biochemical; details: SelectScreen kinase assay system
Experimental: In order to determine the specificity of compound 2-3 within the Aurora kinase family, both Aurora-2 kinase (Aurora-A) and Aurora-1 kinase (Aurora-B) were examined for sensitivity to this molecule. These studies were performed using the SelectScreen kinase assay system (Invitrogen Corp.; Madison, Wis.) and gave rise to the results presented in FIG. 2.

[5] = system: HT-29 cells; test: hollow fiber xenograft model (MTT), HT-29; type: in vivo, athymic nude mice; details: HT-29 fibers implanted IP
Experimental: Compound 2-3 was tested against three tumor types in athymic nude mice using the hollow fiber xenograft model. After incubation and growth overnight, drug-permeable fibers containing tumor cells were surgically implanted either intraperitoneally (IP) or subcutaneously (SC) and allowed to grow for 24-hours. After treatment with compound 2-3, fibers were removed and tumor cell growth was measured using the MTT assay. A549, Panc-1 or HT-29 cells were injected into separate fibers and each mouse received a fiber containing each cell line both SC and IP totaling six fibers per mouse.

[6] = system: DU145 carcinoma; test: DU145 prostate cancer xenograft; type: in vivo
Experimental: In this study, DU145 carcinoma model was used to evaluate the anti-tumor efficacy of compound 2-3. The murine xenograft model was established by inoculating 2×10^6 cells into each Balb/c nude mouse via s.c. injection. When the average tumor size reached ˜100 mm^3, the mice were randomly divided into different experimental groups based on tumor size. Subcutaneous administration of compound 2-3 was conducted via an Alzet osmotic pump. On day 30 a second cycle of dosing was initiated.

[7] = system: A549 non-small cell lung carcinoma cells; test: cell cycle distribution by DNA content flow cytometry (Guava); type: cell-based; details: synchronized A549 cells, 24 hours post-release
Experimental: It is expected that a specific Aurora-2 kinase inhibitor would cause only brief cell cycle arrest at G2/M, which should be immediately followed by apoptosis. This is in contrast to Aurora-1 kinase inhibitors, which tend to cause a prolonged cell cycle arrest. compound 2-3 was examined for its ability to cause cell cycle arrest and apoptosis. Briefly, A549 non-small cell lung carcinoma cells were plated at 50000 cells/mL in a 24-well plate. Cells were synchronized with 4 μg/mL Aphidicolin for 16 hours, followed by a 24 hour synchronization with 1 μg/mL Hoechst 33342, to arrest the cells at the G2/M boundary. Cells were then released into regular medium with or without SGI-498 and allowed to grow for an additional 24 hours. This synchronization was necessary for visualization of the brief G2/M arrest caused by compound 2-3. Following this incubation, cells were stained for DNA content analysis using the Guava Cell Cycle Assay Kit (Guava Technologies, Hayward Calif.), according to manufacturer instructions. Cells were then analyzed with the Guava EasyCyte benchtop flow cytometer using the Guava Cell Cycle analysis protocol. Cells were gated according to DNA content into G0/G1, S, G2/M or apoptotic (sub-G1) categories.

SMILES | toxicity through the duration of the study [1] | tumor growth inhibition in vivo [1] | IC50 ([2]; Example 65, 96 hours, read-out: IC50 (reduce cell number to 50% of untreated controls)) | IC50 ([2]; Table 10, 96 hours, read-out: IC50 MDA-MB-231 (inhibit cell growth to 50% of untreated)) | Treated/Control ratio [3] | tumor growth rate [3] | selectivity for Aurora-2 kinase over Aurora-1 kinase [4] | tumor cell growth in fibers ([5]; 20 mg/kg intravenous) | tumor cell growth in fibers ([5]; 40 mg/kg intravenous) | tumor growth ([6]; Alzet osmotic pump subcutaneous or intravenous, second cycle on day 30) | tolerability of repeat dose (weight loss) ([6]; repeat dose in mice) | efficacy by route of administration ([6]; subcutaneous versus intravenous) | cell cycle arrest and apoptosis [7]
CC(=O)NS(=O)(=O)c1ccc(NC(=S)N2CCN(c3ncnc4[nH]c5cc(C(F)(F)F)c(Cl)cc5c34)CC2)cc1 [Compound 1-1, 4-(6-Chloro-7-trifluoromethyl-9H-pyrimido[4,5-b]indol-4-yl)-piperazine-1-carbothioic acid (4-acetylsulfamoyl-phenyl)-amide] | No noticeable toxicity | effective for inhibiting tumor growth in vivo | 20 µM | 20.2 µM |  |  |  |  |  |  |  |  | 
COc1cc2[nH]c3ncnc(N4CCN(C(=S)Nc5ccc(S(=O)(=O)Nc6ccc(F)cc6)cc5)CC4)c3c2cc1OC [Compound 2-3, 4-(6,7-dimethoxy-9H-pyrimido[4,5-b]indol-4-yl)-N-(4-(N-(4-fluorophenyl)sulfamoyl)phenyl)piperazine-1-carbothioamide] |  |  |  |  | 38% | 10.75 mm^3/d | over 100 fold | 53.8% | 73.4% | led to a reduction in tumor growth | well tolerated | more effective when administered subcutaneously than intravenously | Brief Cell Cycle Arrest in G2/M. Followed by Apoptosis
